Experimental data as given in a compilation of properties of binary mixtures (doi:10.1021/acs.jced.1c00419).

Test: xn = mol fraction of the nth substance listed
Conditions: 101.3 kPa

NC1CCCCC1 + CCCCCC[n+]1ccn(C)c1.F[B-](F)(F)F
x2 = 0
Conditions	speed of sound [m/s]
293.15 K	1430
298.15 K	1409
303.15 K	1387
308.15 K	1366
313.15 K	1344
318.15 K	1323
323.15 K	1302

CCCCCC[n+]1ccn(C)c1.F[B-](F)(F)F + NC1CCCCC1
speed of sound [m/s]
Conditions	x1 = 0.097	x1 = 0.1808	x1 = 0.2945	x1 = 0.396	x1 = 0.5009	x1 = 0.6048	x1 = 0.7029	x1 = 0.8008	x1 = 0.8991
293.15 K	1440	1452	1465	–	1486	1496	1505	–	1522
298.15 K	–	–	1446	1458	1469	1480	1490	1499	–
303.15 K	1400	1411	1427	1440	1453	–	1475	1485	1496
308.15 K	1379	1392	1408	1422	1435	1449	1460	–	–
313.15 K	–	1371	1389	1404	1418	–	1445	1457	1470
318.15 K	1337	1351	1370	1385	1402	1417	1430	1444	–
323.15 K	1316	1331	–	–	–	1401	–	1430	1444

CCCCCCCCn1cc[n+](C)c1.F[B-](F)(F)F + NC1CCCCC1
speed of sound [m/s]
Conditions	x1 = 0.1076	x1 = 0.203	x1 = 0.3072	x1 = 0.4001	x1 = 0.492	x1 = 0.6078	x1 = 0.7023	x1 = 0.7996	x1 = 0.8963
293.15 K	–	1453	–	1470	–	1480	1486	1490	–
298.15 K	1423	–	1445	1452	1459	1465	–	1475	1480
303.15 K	–	–	1427	1435	1443	1450	1455	1460	1466
308.15 K	1382	1396	–	1418	1426	1435	1440	1446	1452
313.15 K	1362	1377	1391	1401	–	1419	1426	1432	1439
318.15 K	1342	1358	–	–	1394	–	–	1418	1426
323.15 K	–	1340	1355	1368	1377	1388	1396	1405	–

NC1CCCCC1 + CCCCCCCCn1cc[n+](C)c1.F[B-](F)(F)F
x2 = 0
Conditions	speed of sound [m/s]
293.15 K	1430
303.15 K	1387
323.15 K	1302

NC1CCCCC1 + CCCC[n+]1ccn(C)c1.F[B-](F)(F)F
speed of sound [m/s]
Conditions	x2 = 0	x2 = 0.0982	x2 = 0.2032	x2 = 0.301	x2 = 0.4012	x2 = 0.4828	x2 = 0.6016	x2 = 0.7124	x2 = 0.8012	x2 = 0.9024
293.15 K	–	1442	1456	1469	1484	1496	1514	1532	1545	–
298.15 K	1409	1420	1435	1450	–	1479	–	1517	1533	1549
303.15 K	1387	1400	1415	1431	1448	1462	1484	–	1520	1538
308.15 K	–	1380	1395	1412	1430	1445	1467	1488	1506	1525
313.15 K	1344	1360	1376	–	1413	1428	1452	1474	1493	–
318.15 K	1323	1340	1357	–	1396	1412	1436	1460	1479	1501
323.15 K	–	1320	1338	1356	1378	1395	–	1446	1466	1489
